Measured values reported in patent publication US20150322049A1, “LEUKOTRIENE PATHWAY ANTAGONISTS FOR THE TREATMENT OF DEMENTIA, COGNITIVE DEFICITS IN PARKINSON'S DISEASE AND/OR LEARNING AND MEMORY DEFICIENCIES IN PARKINSON'S DISEASE” (priority 2012, published 2015).
Where two headings read alike, the source gives them in different places.

Tests used:
[1] = tested on: neural progenitor cells (NPC); settings: cited from earlier work; for influence on the proliferation of NPCs: treatment of NPCs with leukotriene
[2] = tested on: CysLT1R-mediated amyloid-beta generation; settings: cited from earlier work
[3] = Body weight on day 1 and day 42 of treatment; assay type: in vivo, rat; settings: young and old rats, 10 mg kg^-1 p.o. daily
Method: For the analysis of cell survival and cell differentiation, all rats received intraperitoneal injections of BrdU (Sigma, Germany) at 50 mg kg^−1 of body weight dissolved in 0.9% saline solution on day 12, 13, 14 and 15.
GPR17 is highly expressed in food-intake-regulating Agrp Neurons, and intraventricular infusion of GPR17 agonists elevates food intake (Ren, 2012, Cell, 8; 149(6):1314-26). […] Therefore, each rat was weighed at the beginning of the experiment (day 1) and directly before the perfusion (day 42).

neural stem cell (NSC) = settings: cited from earlier work
young rats = settings: intraperitoneal, combination treatment with rofecoxib; cited from earlier work
[4] = tested on: Alzheimer's disease patients; settings: cited from earlier work

In the case of `CCCCC/C=C\C\C=C/C=C/C=C/[C@@H](SC[C@H](NC(=O)CC[C@H](N)C(=O)O)C(=O)NCC(=O)O)[C@@H](O)CCCC(=O)O` [Leukotriene C4], the “influence on the proliferation of NPCs” value [1] is given as “no influence”.

In the case of `CCCCC/C=C\C\C=C/C=C/C=C/[C@@H](SC[C@H](N)C(=O)NCC(=O)O)[C@@H](O)CCCC(=O)O` [Leukotriene D4], the “influence on the proliferation of NPCs” value [1] is given as “no influence” and the effect on cognition ([2]; 3 month old mice) is given as “induce cognitive impairment”.

In the case of `CC(C)(O)c1ccccc1CC[C@@H](SCC1(CC(=O)O)CC1)c1cccc(/C=C/c2ccc3ccc(Cl)cc3n2)c1` [Montelukast, montelukast], the “body weight vs vehicle treated counterparts” value [3] is listed as “did not differ”, the “body weight vs vehicle treated counterparts” value ([3]; listed as montelukast) is listed as “remained stable” and the NPC proliferation rate ([1]; 1 μM) is listed as “did not alter”. The NPC proliferation ([1]; 10 μM) was “increased proliferation”, the NPC proliferation ([1]; 15 μM) was “increased proliferation” and the NPC proliferation rate ([1]; 30 μM) was “did not alter”. For the same compound, the NPC proliferation ([1]; 50 μM) was “significant reduction”, the NPC proliferation ([1]; 100 μM) was “significant reduction” and the NSC proliferation (neural stem cell (NSC); 15 μM) was “significantly increase”. The “proliferative potential of the NSCs” value (neural stem cell (NSC); 30 μM) was “significantly reduced”, the “proliferative potential of the NSCs” value (neural stem cell (NSC); 100 μM) was “significantly reduced” and the “effect against kainic acid-induced cognitive dysfunction in combination with rofecoxib” value (young rats) was “potentiates the protective effect of rofecoxib”.

In the case of `COc1ccc2c(c1)c(CC(=O)O)c(C)n2C(=O)c1ccc(Cl)cc1` [indomethacin], the mental functions [4] is listed as “stabilize mental functions”.

For pranlukast, the “leukotriene D4-induced increase in amyloid-beta generation” value ([2]; 3 month old mice, injected bilaterally 2.5 mm below the dura) is given as “inhibited” and the “learning impairment and memory loss caused by leukotriene D4 treatment” value ([2]; mice, sub-dura injection) is given as “improves”.
